In US20220022465A1, “METHODS AND COMPOSITIONS FOR REPELLING BIRDS IN CROP PLANTS” (Bayer Aktiengesellschaft, priority 2019, published 2022):

System: pigeons
Assay: Third repellency test 3.3, compared with pigeons offered untreated seeds in parallel at Day 0
Type: in vivo
Text: The test procedure was however slightly changed compared to the trials in Examples 3.1 and 3.2. Indeed, instead of simply comparing the effect of the tested compositions against the untreated seeds offered to the pigeons at Day-1, here a set of the pigeons was also offered untreated seeds at Day 0 in parallel to the set of pigeons being offered the seeds treated with a composition. The results for the set of pigeons having received the treated seeds are therefore compared to the results for the set of pigeons having received the untreated seeds in parallel at Day 0 (instead of the results for the set of the pigeons having received the untreated seeds at Day-1). Two trials under this setting have been performed with different compositions.
Trial 1: • Black pepper at the dose of 40.5 ml/50000 corn seeds • Garlic at the dose of 4.5 ml/50000 corn seeds • Mixture of Black pepper (90%) and garlic (10%) at the dose of 45 ml/50000 corn seeds
Trial 2: • Black pepper at the dose of 40.5 ml/50000 corn seeds • Garlic at the dose of 4.5 ml/50000 corn seeds • Mixture of Black pepper (90%) and garlic (10%) at the dose of 45 ml/50000 corn seeds • Thiram at the dose of 45 ml/50000 corn seeds

SMILES: CN(C)C(=S)SSC(=S)N(C)C [Thiram]
- Percentage (%) of reduction of feed consumption (Trial 2, 45 ml per 50000 maize seeds): 65%
- Repellency effect on seed consumption, in words (test 3.3, doses of Table 4): good repellency effect on seed consumption
